Several values for one entry are separate records, joined by “and”; a condition that tells them apart may be missing. Equal values may be shown once. Read-outs that look alike come from different tables or passages of the source.
Experiments:
[1] = test system: rat osteocalcin promoter; assay: OCN (osteocalcin) promoter assay; format: cell-based; conditions: RG-15 (ROS 17/2.8) cells
Experimental: 3. The OCN (Osteocalcin) Promoter Assay
The OCN Promoter Assay is an indicator and marker for osteoporosis. […] Preferred assay results are less than 50 nM.
(3) Materials and Method for The OCN Promoter Assay:
The activation of osteocalcin by VDR ligands was evaluated in a rat osteoblast-like cell line RG-15 (ROS 17/2.8) stably expressing rat osteocalcin promoter fused with luciferase reporter gene. […] Confluent RG-15 cells maintained in DMEM/F-12 medium (3:1) containing 5% FBS, 300 μg/ml G418 and at 37° C. under 5% CO2/95% air atmosphere were trypsinized (0.25% trypsin) and plated into white opaque 96-well cell culture plates (25000 cells/well). After 24 hr, cells (in DMEM/F-12 medium+2% FBS) were treated with various concentrations of compounds, dissolved in DMSO. The final DMSO concentration remained at 0.01% (v/v). After 48 hr treatment, the medium was removed, cells were lysed with 50 μl of lysis buffer (From Luciferase reporter assay system, Roche Diagnostics, Indianapolis, Ind.) and assayed for luciferase activity using the Luciferase Reporter Gene Assay kit from Boehringer Mannheim as per manufacturer's specifications.

[2] = test system: female DBF mice; assay: Mouse hypercalcemia assay; conditions: oral gavage for 6 days
Text: The Mouse Hypercalcemia Assay
The Mouse Hypercalcemia Assay is a six day hypercalcemia test for toxicity and selectivity.
(4) Materials and Method for the Mouse Hypercalcemia Assay:
Weanling, virus-antibody-free, five to six weeks old female DBF mice (Harlan, Indianapolis, Ind.) are used for all the studies. Animals are allowed to acclimate to local vivarium conditions for 2 days. […] The animals then are divided into groups with 4-5 mice per group. Different doses of test compounds prepared in 10% Ethanol and 90% sesame oil are administered to mice orally via gavage for 6 days. 1α-25(OH)2D3 0.5 μg/kg/d was also given to one group of mice as the positive control. […] Raw data of group differences is assessed by analysis of variance (ANOVA) using Fisher's protected least significant difference (PLSD) where the significance level was P<0.05.

[3] = test system: KERtr cells; assay: Keratinocyte proliferation assay; format: cell-based; conditions: Homo sapiens, read-out: Kera. Prolif. IC50
Experimental: 5. The Keratinocyte Proliferation Assay
This Assay is indicative for the treatment of psoriasis.
(5) The Keratinocyte Proliferation Assay:
KERtr cells (Human skin keratinocyte transformed with a retrovirus vector, obtained from ATCC) were plated in 96-well flat-bottomed plates (3000 cells/well) in 100 μl keratinocyte serum free medium supplemented with bovine pituitary extract in the absence of EGF (Life Technologies, Rockville, Md.) and incubated at 37° C. for two days. The cells were treated with various concentrations of VDR ligands (ten-fold serial dilution from 10,000 nM to 0.1 nM in triplicate), dissolved in 100 μl keratinocyte serum free medium supplemented with bovine pituitary extract in the absence of EGF and incubated at 37° C. for 72 hr. […] Potency values (IC50) values were determined as the concentration (nM) of compound that elicited a half-maximal response.

[4] = target: T1, VDR (Homo sapiens, UniProt P11473); assay: VDR CTF (Caco-2 cell co-transfection) assay; format: cell-based; conditions: Caco-2 cells, pGal4-VDR-LBD co-transfection, luciferase; several values separated by /
T1 construct: the receptor expression vector pGal4-VDR-LBD (10 ng); expressed in transfected cells; host or cells: Caco-2 cells
T1 sequence (P11473 127-423 limits assumed): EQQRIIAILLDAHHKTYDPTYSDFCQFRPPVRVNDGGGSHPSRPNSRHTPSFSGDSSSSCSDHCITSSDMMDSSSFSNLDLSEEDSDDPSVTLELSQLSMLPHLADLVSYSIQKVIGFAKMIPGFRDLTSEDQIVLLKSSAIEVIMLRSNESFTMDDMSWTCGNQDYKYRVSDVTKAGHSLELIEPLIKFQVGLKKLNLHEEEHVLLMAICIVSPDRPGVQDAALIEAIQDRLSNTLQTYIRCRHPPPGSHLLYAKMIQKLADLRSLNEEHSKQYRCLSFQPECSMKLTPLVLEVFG
Experimental: 2. The Caco-2 Cell Co-Transfection Assay:
The Caco-2 cell assay is an indicator for the undesirable condition of hypercalcemia. This co-transfection assay is a surrogate assay for in vivo calcemic activity of VDR ligands. […] Preferred assay results are greater than 1000 nM.
(2) Materials and Method for the Caco-2 Cell Assay:
Caco-2 cells, grown in phenol red free, DMEM (Invitrogen, Carlsbad, Calif.) containing 10% charcoal-stripped FCS (Hyclone, Logan, Utah), were transfected with Fugene 6 reagent (Roche Diagnostics, Indianapolis, Ind.). Cells (5000/well) were plated 18 h before transfection in a 96 well plate. The Cells were transfected with Gal4-responsive reporter pFRLuc (150 ng, Stratagene, La Jolla Calif.) and the receptor expression vector pGal4-VDR-LBD (10 ng), along with Fugene 6 reagent (0.2 μl/well). The DNA-Fugene complex was formed by incubating the mixture for 30 min at room temperature. The cells were transfected in triplicate for 5 h, and treated with various concentrations of VDR ligands (form 0.01 nM to 10,000 nM concentration range) 18 h post-transfection. The luciferase activity was quantified using Steady-Glo reagent kit (Promega, Madison, Wis.) as per manufacturer's specifications.

[5] = target: T2, RXR-VDR heterodimer (Homo sapiens, UniProt P11473); assay: RXR-VDR heterodimerization assay (SaOS-2 cells); format: cell-based; conditions: Gal4-RXR-DEF/VP16-VDR-LBD luciferase reporter, several values in a cell separated by /
T2 construct: Add the Gal4-RXR-DEF and VP16-VDR-LBD; expressed in transfected cells; host or cells: SaOS-2 cells
T2 sequence (P11473 127-423 limits assumed): T1 sequence (P11473 127-423 limits assumed)
T2 sequence (P19793 201-462 partner limits assumed): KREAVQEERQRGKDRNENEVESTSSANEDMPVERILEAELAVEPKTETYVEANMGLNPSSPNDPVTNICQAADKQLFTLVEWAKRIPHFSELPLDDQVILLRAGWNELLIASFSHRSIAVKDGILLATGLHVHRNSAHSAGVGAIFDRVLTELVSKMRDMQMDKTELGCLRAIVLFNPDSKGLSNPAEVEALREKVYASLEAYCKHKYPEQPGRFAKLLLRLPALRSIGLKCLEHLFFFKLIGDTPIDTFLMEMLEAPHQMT
Experimental: 1. The RXR-VDR Heterodimer Assay:
This assay provides the VDR activity of a test compound.
(1) Materials and Method for RXR-VDR Heterodimerization Assay:
Luciferase Assay Reagent: • Use Steady-Glo Luciferase Reagent from Promega (Cat #E2550) Consists of: a. E2533 Assay Substrate, lyopholized product and b. E2543 Assay Buffer. • Thaw at room temperature • Store Cell Harvesting Aspirate media from culture flask, rinse cells with HBSS and aspirate. Add trypsin and incubate. When cells appear detached, resuspend cells in growth media. Transfer into a new flask with fresh growth media for passaging the cells. Plate well plates and two extra plates A. Cell Count Mix the cell suspension using pipette Use Hematocytometer to count the cells Load cell suspension onto the hemocytometer chamber Count cells. […] In sterile flask add cell suspension to plating media. Mix. Add cells/well. Place the cells in the incubator. Cells should be about 75% confluent prior to transfection. DAY 2: Transfection Step 1: DNA and Media Add plain DMEM media to tubes for mixing the DNA Add the Reporter gene pFR-LUC Add the Gal4-RXR-DEF and VP16-VDR-LBD Step 2: FuGENE and Media Prepare plain DMEM media in a ubes for mixing FuGENE Add FuGENE 6 Transfection Reagent Incubate Step 3: FuGENE, DNA and Media Complex Add FuGENE Media complex from step 2 to DNA Media complex from step 1 Incubate Step 4: FuGENE, DNA and Media Complex to-well plate Add FuGENE-DNA-Media complex from step 3 to each plate Incubate. […] Day 4: Luciferase Assay Read the plates after drug treatment Remove part of media from all the wells and leave remainder Add Steady-Glo Luciferase Reagent mixture/wells Incubate Count each well using a Luminescence counter, Top Count NXT by Packard
Set a delay between plates to reduce the background.

[6] = Rattus norvegicus, comparison compounds
[7] = Rattus norvegicus, 48 h, 48 hr treatment, luciferase, several values separated by /
[8] = serum ionized calcium 6 hours after last dosing
[9] = 72 h, BrdU incorporation, several values separated by /
[10] = 48 hr treatment, luciferase, several values separated by /

Row | SMILES | EC50 [1, 7] [nM] | EC50 [4] | IC50 [3, 9] [nM] | EC50 [5] | further results
1 | CCC(CC)(c1ccc(OCC(=O)C(C)(C)C)c(C)c1)c1ccc(OCC(=O)C(C)(C)C)c(C)c1 [DD, reference compound] | – | – | – | – | EC50 [1, 6]: 31.1 nM; Mouse Hypercal ([2]; comparison compounds): 1000 µg/kg/day; IC50 ([3]; comparison compounds): 1060 nM
2 | CCC(CC)(c1ccc(OCC(=O)C(C)(C)C)c(C)c1)c1ccc(OC[C@H](O)C(C)(C)C)c(C)c1 [EE, reference compound] | – | – | – | – | EC50 [1, 6]: 341 nM; Mouse Hypercal ([2]; comparison compounds): 1000 µg/kg/day
3 | CCC(CC)(c1ccc(OCC(=O)C(C)(C)C)c(C)c1)c1cc2ccc(C(=O)O)cc2o1 [Ex 18, 2-{1-[4-(3,3-dimethyl-2-oxo-butoxy)-3-methyl-phenyl]-1-ethyl-propyl}-benzofuran-6-carboxylic acid] | 2 | 472 nM | 25 | – | Mouse Hypercal [2, 8]: >300 µg/kg/day
4 | CCC(CC)(c1ccc(OCC(=O)C(C)(C)C)c(C)c1)c1cc2ccc(C(=O)NCC(=O)O)cc2o1 [Ex 20, [(2-{1-[4-(3,3-Dimethyl-2-oxo-butoxy)-3-methyl-phenyl]-1-ethyl-propyl}-benzofuran-6-carbonyl)-amino]-acetic acid] | – | 773 nM | 1000 | 264 nM and 68 nM | –
5 | CCC(CC)(c1ccc(OCC(=O)C(C)(C)C)c(C)c1)c1cc(C)c2oc(C(=O)NCC(=O)O)cc2c1 [Ex 28, [(5-{1-[4-(3,3-dimethyl-2-oxo-butoxy)-3-methyl-phenyl]-1-ethyl-propyl}-7-methyl-benzofuran-2-carbonyl)-amino]-acetic acid] | 4 | – | 11 | – | Mouse Hypercal [2, 8]: >1000 µg/kg/day
6 | CCC(CC)(c1ccc(OCC(O)C(C)(C)C)c(C)c1)c1ccc2oc(C(=O)NCC(=O)O)cc2c1 (centres unmarked) [Ex 33, [(5-{1-ethyl-1-[4-(2-hydroxy-3,3-dimethyl-butoxy)-3-methyl-phenyl]-propyl}-benzofuran-2-carbonyl)-amino]-acetic acid] | 0.4 | 178 nM | – | 9 nM | –
7 | CCC(CC)(c1ccc(OCC(=O)C(C)(C)C)c(C)c1)c1ccc2oc(C(=O)O)c(C)c2c1 [Ex 34, 5-{1-[4-(3,3-Dimethyl-2-oxo-butoxy)-3-methyl-phenyl]-1-ethyl-propyl}-3-methyl-benzofuran-2-carboxylic acid] | 13 | 896 nM | – | – | EC50 [1, 10]: 21 nM; Mouse Hypercal [2, 8]: >3000 µg/kg/day
8 | CCC(CC)(c1ccc(OCC(O)C(C)(C)C)c(C)c1)c1ccc2oc(C(=O)O)c(C)c2c1 (centres unmarked) [Ex 35, 5-{1-Ethyl-1-[4-(2-hydroxy-3,3-dimethyl-butoxy)-3-methyl-phenyl]-propyl}-3-methyl-benzofuran-2-carboxylic acid] | 13 | 753 nM | 700 | – | EC50 [1, 10]: 21 nM
9 | CCC(CC)(c1ccc(OCC(O)C(C)(C)C)c(C)c1)c1ccc2oc(C(=O)N(C)C)c(C)c2c1 (centres unmarked) [Ex 37, 5-{1-ethyl-1-[4-(2-hydroxy-3,3-dimethyl-butoxy)-3-methyl-phenyl]-propyl}-3-methyl-benzofuran-2-carboxylic acid dimethylamide] | – | 865 nM | > 1000 | 777 nM and 133 nM | –
10 | CCC(CC)(c1ccc(OCC(O)C(C)(C)C)c(C)c1)c1ccc2oc(C(=O)NCC(=O)O)c(C)c2c1 (centres unmarked) [Ex 39, [(5-{1-ethyl-1-[4-(2-hydroxy-3,3-dimethyl-butoxy)-3-methyl-phenyl]-propyl}-3-methyl-benzofuran-2-carbonyl)-amino]-acetic acid] | 0.4 | 419 nM | 19 | 138 nM | –
11 | CCC(CC)(c1ccc(OCC(O)C(C)(C)C)c(C)c1)c1cc2cc(C(=O)O)ccc2o1 (centres unmarked) [Ex. 4, 2-{1-Ethyl-1-[4-(2-hydroxy-3,3-dimethyl-butoxy)-3-methyl-phenyl]-propyl}-benzofuran-5-carboxylic acid] | – | 312 nM and 368 nM | – | – | –
12 | CCC(CC)(c1ccc(OCC(=O)C(C)(C)C)c(C)c1)c1cc2cc(C(=O)N(C)C)ccc2o1 [Ex. 5, 2-{1-[4-(3,3-Dimethyl-2-oxo-butoxy)-3-methyl-phenyl]-1-ethyl-propyl}-benzofuran-5-carboxylic acid dimethylamide] | 106 | 1200 nM | – | – | EC50 [1, 10]: 79 nM
13 | CCC(CC)(c1ccc(OCC(O)C(C)(C)C)c(C)c1)c1cc2cc(C(=O)NCC(=O)O)ccc2o1 (centres unmarked) [Ex. 8, [(2-{1-Ethyl-1-[4-(2-hydroxy-3,3-dimethyl-butoxy)-3-methyl-phenyl]-propyl}-benzofuran-5-carbonyl)-amino]-acetic acid] | 0.6 | 120 nM | 0.3 | 6 nM and 2 nM | –
14 | CCC(CC)(c1ccc(OCC(O)C(C)(C)C)c(C)c1)c1cc2cc(C(=O)Nc3nn[nH]n3)ccc2o1 (centres unmarked) [Ex. 13, 2-{1-Ethyl-1-[4-(2-hydroxy-3,3-dimethyl-butoxy)-3-methyl-phenyl]-propyl}-benzofuran-5-carboxylic acid (2H-tetrazol-5-yl)-amide] | 3 | 602 nM | > 1000 | – | –
